Results from publication PMC4332545 (ChemMedChem, 2009).

Tests used:
[1] = test system: Frings mouse model of epilepsy; details: in vivo; cited from earlier work
[2] = test system: 6 Hz (32 mA) corneal stimulation seizures in CF-1 mice; test: 6 Hz partial psychomotor seizure model; type: in vivo; details: mouse 6 Hz, 30 min after dosing

Compound | Anticonvulsant activity in the Frings mouse model [1] | Anticonvulsant Assay, icv ED50 [2]
ZSEEGGSNATKKPYIL [Contulakin-G] | potent anticonvulsant activity | –
CC[C@H](C)[C@H](NC(=O)[C@H](Cc1ccc(O)cc1)NC(=O)[C@@H]1CCCN1C(=O)[C@H](CCCNC(=N)N)NC(=O)[C@@H](N)CCCNC(=N)N)C(=O)N[C@@H](CC(C)C)C(=O)O [NT(8–13), H-RRPYIL-OH] | – | 0.0011 nmol
